Source: patent US20230310432A1 (JULIUS-MAXIMILIANS-UNIVERSITÄT WÜRZBURG, priority 2017, published 2023)

Columns and labels:
[1] = system: CD8+ T cells expressing a ROR1 CAR with 4-1BB costimulatory domain; assay: Bioluminescence-based cytotoxicity assay, K562/ROR1 target cells; type: cell-based, human
[2] = system: CD8+ T cells expressing a SLAMF7 CAR with CD28 costimulatory domain; assay: Bioluminescence-based cytotoxicity assay, K562/SLAMF7 target cells; type: cell-based, human
[3] = system: CAR-T cells co-expressing the iCasp suicide gene; assay: Elimination of iCasp+ T cells; type: cell-based, human; conditions: 100 nM dasatinib and dimerizer (dasatinib+/dimerizer+); 24 hours
Experimental: After 24 hours, cells were labeled with anti-CD3 mAB and analyzed by flow cytometry for the presence of iCasp+ T cells.
After 24 hours, cells were labeled with anti-CD3 mAB and analyzed by flow cytometry for the presence of iCasp^+ T cells.

[4] = system: activated CD19 CAR/4-1BB-T cells; Raji tumor cells; assay: Raji tumor burden by bioluminescence imaging, function ON/OFF/ON (Example 7); type: in vivo, NSG mice; conditions: between day 12 and 17; CAR-T cells with prior dasatinib; 97.8% without
Experimental: The Institutional Animal Care and Use Committee of UKW approved all mouse experiments. NOD.Cg-Prkdc^scidIl2rg^tm1wjl/SzJ (NSG) mice (female, 6-8 week old) were purchased from Charles River (Sulzfeld, Germany). Mice were inoculated with 1×10^6 Raji/ffluc_GFP tumor cells via tail vein injection (i.v.). Mice were treated with 5×10^6 CAR-modified or control untransduced T-cells (CD4:CD8 ratio=1:1) via tail vein injection (i.v.). […] Tumor burden and distribution was analyzed by serial bioluminescence imaging on an IVIS Lumina imager (Perkin Elmer, Baesweiler, Germany): mice received i.p. injections of 0.3 mg/g luciferin and images were acquired 10 minutes after luciferin injection in small binning mode at an acquisition time of 1 s to 1 min to obtain unsaturated images. Data were analyzed using LivingImage Software (Caliper) and the average radiance (or photon flux) analyzed in regions of interest that encompassed the entire body of each individual mouse. Mice were sacrificed at the end of the experiment and human T cells in bone marrow, peripheral blood and spleen were analyzed by flow cytometry. The presence of (human) cytokines in serum was measured using multiplex cytokine analysis. […]
Raji tumor burden was determined by bioluminescence imaging on day 7, day 10, day 12, day 14, day 17, and subsequently, once a week (FIG. 16B).

[5] = system: CD4+ T cells expressing a SLAMF7 CAR with 4-1BB costimulatory domain; assay: Cytokine ELISA, co-culture with K562/SLAMF7; type: cell-based, human; conditions: dasatinib ≥20 nM; 20 h
Experimental: (§1) Cytokine secretion: 5×10^4 T-cells were plated in duplicate or triplicate wells with target cells at an E:T ratio of 4:1 (K562/ROR1, K562/CD19, RCH-ACV), and IFN-γ and IL-2 were measured by ELISA, or cytokine panels were measured by multiplex cytokine immunoassay (Luminex) in supernatant removed after 20-h incubation. Specific cytokine production was calculated by subtracting the amount of cytokines released by unstimulated CAR-T cells from the amount of cytokines released after antigen-specific stimulation. The remaining cytokine secretion in % as shown in the diagrams is normalized to CAR-T cells in the absence of dasatinib-treatment (100%).
(§2) The inventors prepared SLAMF7-specific CD8^+ and CD4^+ CAR-T cell lines from n=2 healthy donors. In each of the T-cell lines, the inventors enriched CAR-expressing T cells to >90% purity using the EGFRt-transduction marker. […] CAR-T cells were co-cultured with K562 that the inventors had transduced with SLAMF7. Dasatinib was added to the assay medium at the beginning of the co-culture assay. ELISA was performed to detect IFN-γ and IL-2 in supernatant removed from the co-culture.

[6] = system: CD8+ T cells expressing a SLAMF7 CAR with CD28 costimulatory domain; assay: Cytokine ELISA, co-culture with K562/SLAMF7; type: cell-based, human; conditions: 20 h
Experimental: as §1, §2

[7] = system: CD8+ T cells expressing a SLAMF7 CAR with 4-1BB costimulation; assay: Cytokine ELISA, co-culture with K562/SLAMF7; type: cell-based, human; conditions: 20 h
Experimental: as §1, §2

[8] = system: CD4+ T cells expressing a SLAMF7 CAR with CD28 costimulatory domain; assay: Cytokine ELISA, co-culture with K562/SLAMF7; type: cell-based, human; conditions: dasatinib 20 nM; 20 h
Experimental: as §1, §2

[9] = system: CD8+ T cells expressing a CD19 CAR with CD28 costimulatory domain; assay: Cytokine production and secretion (IFN-γ, IL-2 ELISA), co-culture with K562/CD19; type: cell-based, human; conditions: dasatinib ≥50 nM; 20 h
Experimental: as §1
CAR-T cells were co-cultured with K562 that the inventors had transduced with either CD19 (for testing CD19 CAR-T cells) or ROR1 (for testing ROR1 CAR-T cells). Dasatinib was added to the assay medium at the beginning of the co-culture assay. ELISA was performed to detect IFN-γ and IL-2 in supernatant removed from the co-culture.

[10] = system: CD8+ CD19 CAR/4-1BB T cells; assay: Apoptosis assay (Annexin-V/7-AAD) after co-culture with K562/CD19; type: cell-based, human
Experimental: CD8^+ CD19 CAR-T cells were cultured in the presence of 50 U IL-2 either alone or with irradiated (80 Gy) K562/CD19 tumor cells at an E:T ratio of 4:1. […] After 24 hours of co-culture, co-cultures were labeled with anti-CD8 mAb, 7AAD and AnnexinV according to the manufacturer's instructions (BD Biosciences, Heidelberg, Germany), and analyzed by flow cytometry to evaluate the amount of apoptotic and dead T cells.
At the end of the co-culture, the inventors performed staining with Annexin-V and 7-AAD to determine the percentage of live CAR-T cells (Annexin-V-negative/7-AAD-negative), CAR-T cells undergoing apoptosis (Annexin-V-positive/7-AAD-negative), and dead CAR-T cells (Annexin-V-positive/7-AAD-positive).

[11] = system: CD8+ T cells expressing a ROR1 CAR with 4-1BB costimulatory domain; assay: Bioluminescence-based cytotoxicity assay, RCH-ACV target cells; type: cell-based, human; conditions: 100 nM dasatinib; t=8 hours; >90% untreated
[12] = dasatinib added at 2 hours after the start of the co-culture, 24 h

## Cc1nc(Nc2ncc(C(=O)Nc3c(C)cccc3Cl)s2)cc(N2CCN(CCO)CC2)n1 [dasatinib]
[1]; dasatinib 25 nM, up to t=5 h, 73% by non-dasatinib treated
  specific lysis of target cells: less than 2%
[1]; dasatinib 50 nM, any given timepoint, 94% by non-dasatinib treated at t=10 h
  specific lysis of target cells: less than 2%
[2]; dasatinib 20, 40 and 60 nM, t=6 h, 67% by non-dasatinib treated
  specific lysis of target cells: less than 21%
[2]; dasatinib 20, 40 and 60 nM, t=12 h, 85% by non-dasatinib treated
  residual specific lysis of target cells: less than 35%
[2]; dasatinib ≥80 nM, any given time point, 85% by non-dasatinib treated at t=12 h
  specific lysis of target cells: less than 3%
[3]
  percentage of iCasp+ cells: 36%
[4]
  reduction of tumor luminescence: 66%
[5]
  residual IFN-γ: less than 0.5%
[6]; dasatinib ≥20 nM
  residual specific IFN-γ production: less than 4%
[6]; dasatinib ≥40 nM
  residual specific IFN-γ production: less than 0.2%
[7]; dasatinib 20 nM
  residual specific IFN-γ production: less than 15%
[7]; dasatinib ≥40 nM
  residual specific IFN-γ production: less than 0.8%
[8]
  residual IFN-γ: less than 1.2%
[9]
  residual specific IFN-γ production compared to non-dasatinib treated CAR-T cells: less than 4.5%
[10]; 100 nM dasatinib present, 24 h with K562/CD19, 8.4% in absence
  dead CAR-T cells (Annexin-V-positive/7-AAD-positive): 6.9%
[10]; 100 nM dasatinib present, 24 h with K562/CD19, 25.4% in absence
  alive CAR-T cells (Annexin-V-negative/7-AAD-negative): 47.4%
[10]; 100 nM dasatinib present, 24 h with K562/CD19, 66.2% in absence
  apoptotic CAR-T cells (Annexin-V-positive/7-AAD-negative): 45.7%
[10]; [12]
  alive CAR-T cells: 41.7%
  apoptotic CAR-T cells: 51.3%
  dead CAR-T cells: 7%
[11]
  specific lysis: < 5%
